Data taken from patent publication US6977296B2, “HUMAN CERVICAL CANCER SUPPRESSOR PROTEIN, POLYNUCLEOTIDE ENCODING THE PROTEIN, CELL TRANSFORMED WITH THE POLYNUCLEOTIDE AND METHOD FOR SUPPRESSING PROLIFERATION OF CANCER CELL USING THE EXPRESSION VECTOR” (priority 2000, dated 2005).

Test system: HeLa cervical cancer cells
Experiment: Adriamycin or UVC-triggered apoptosis: cell cycle kinetic analysis (PI, FACS)
Type: cell-based, human
Procedure: To examine whether a drug or UV light triggers apoptosis of the cells transfected with HCCS-1 gene, the cell cycle kinetic analysis was conducted as described by Hedley, D. W.(in Flow Cytometry, DNA Analysis from Paraffin-embedded Blocks (eds Darzynkiewicz, Z. & Crissman, H. A.) 139 (Academic Press, San Diego, 1990)).
HeLa cells transfected with HCCS-1 gene obtained in Step 2 of Example 4 and parental wild-type cells were cultured until mid-log phase and incubated in Waymouth MB 752/1 medium containing 0.5% bovine calf serum for 36 hours to arrest the cell growth at G0/G1 phase. The cells were treated with adriamycin (0.1 and 2 μg/ml, respectively) or UVC (50 J/m^2) and then the cells were cultured in Waymouth MB 752/1 medium containing 0.5% bovine calf to resume the cell growth. After 24 hours, HeLa cells were harvested, treated with trypsin, and fixed in 70% ethanol.
50 μg/ml of PI staining solution (Sigma) and 100 units/ml of RNase A (Boerhinger Mannheim) were added to 2×10^6 of the fixed cells. After incubation for 1 hour, the cellular DNA content was determined by fluorescence analysis at 488 nm using a FACS Caliber (Becton Dickinson). A minimum of 1×10^4 cells per sample was analyzed with Modfit 5.2 software.

COc1cccc2c1C(=O)c1c(O)c3c(c(O)c1C2=O)C[C@@](O)(C(=O)CO)C[C@@H]3O[C@H]1C[C@H](N)[C@H](O)[C@H](C)O1 [adriamycin]
differences in cell populations with respect to cell cycle progression between wild-type and HCCS-1-transfected HeLa cells (adriamycin 0.1 and 2 μg/ml, 24 hours): no significant differences
cells in apoptotic sub G0/G1-phase (wild-type HeLa cells, 24 hours after adriamycin 0.1 and 2 μg/ml): few cells remained in apoptotic sub G0/G1-phase
